US8658646B2, “Pyrrolopyrazine kinase inhibitors” (Hoffmann-LaRoche Inc., priority 2011, dated 2014)
pIC50: −log10 of the molar value. Structures can show the parent of a compound that is named as a salt.

Molecular target: T1, recombinant human SYK360-635 (Homo sapiens, UniProt P43405)
T1 construct: made in house
Assay: Determination of IC50 of Spleen Tyrosine Kinase (SYK) inhibition, 33P ATP filtration assay
Assay type: biochemical
Conditions: SYK aa 360-635 0.5 nM; ATP 20 μM, peptide 5 μM, 0.1% BSA; read-out: SYK_ENZYME_FILTRATION/v1, BSA

Row | SMILES | pIC50
1 | NC1CCC(NC(=O)c2c[nH]c3ncc(-c4nn(C5CCNCC5)c5cc(F)ccc45)nc23)C1 (centres unmarked) [Example I-267, 2-(6-Fluoro-1-piperidin-4-yl-1H-indazol-3-yl)-5H-pyrrolo[2,3-b]pyrazine-7-carboxylic acid (3-amino-cyclopentyl)-amide] | 7.52
2 | Cn1nc(-c2cnc3[nH]cc(C(=O)NC(C)(C)CCN)c3n2)c2ccc(F)cc21 [Example I-415, 2-(6-Fluoro-1-methyl-1H-indazol-3-yl)-5H-pyrrolo[2,3-b]pyrazine-7-carboxylic acid (3-amino-1,1-dimethyl-propyl)-amide] | 6.49
3 | Cn1cc(Cn2nc(-c3cnc4[nH]cc(C(=O)NC(C)(C)C)c4n3)c3cc(OC(F)F)ccc32)cn1 [Example I-274, 2-[5-Difluoromethoxy-1-(1-methyl-1H-pyrazol-4-ylmethyl)-1H-indazol-3-yl]-5H-pyrrolo[2,3-b]pyrazine-7-carboxylic acid tert-butylamide] | 8.60
4 | CC(C)(C)NC(=O)c1c[nH]c2ncc(-c3nn(CC4CC4)c4ccc(OC(F)F)cc34)nc12 [Example I-351, 2-(1-Cyclopropylmethyl-5-difluoromethoxy-1H-indazol-3-yl)-5H-pyrrolo[2,3-b]pyrazine-7-carboxylic acid tert-butylamide] | 7.73
5 | CC(C)(C)NC(=O)c1c[nH]c2ncc(-c3nccc4cc[nH]c34)nc12 [Example I-328, 2-(1H-Pyrrolo[2,3-c]pyridin-7-yl)-5H-pyrrolo[2,3-b]pyrazine-7 carboxylic acid tert-butylamide] | 6.01
6 | CN1CCC(n2nc(-c3cnc4[nH]cc(C(=O)NC(C)(C)C)c4n3)c3cc(OC(F)F)ccc32)CC1 [Example I-263, 2-[5-Difluoromethoxy-1-(1-methyl-piperidin-4-yl)-1H-indazol-3-yl]-5H-pyrrolo[2,3-b]pyrazine-7-carboxylic acid tert-butylamide] | 7.84
7 | Cc1ccc2c(-c3cnc4[nH]cc(C(=O)NC5(CO)CC5)c4n3)nn(C)c2c1 [Example I-429, 2-(1,6-Dimethyl-1H-indazol-3-yl)-5H-pyrrolo[2,3-b]pyrazine-7-carboxylic acid (1-hydroxymethyl-cyclopropyl)-amide] | 7.90
8 | CC(C)NC(=O)c1c[nH]c2ncc(-c3nn(CCCN(C)C)c4ccc(OC(F)F)cc34)nc12 [Example I-450] | 7.88
9 | Cn1nc(-c2cnc3[nH]cc(C(=O)NC(C)(C)CO)c3n2)c2ccc(OC(F)(F)F)cc21 [Example I-371, 2-(1-Methyl-6-trifluoromethoxy-1H-indazol-3-yl)-5H-pyrrolo[2,3-b]pyrazine-7-carboxylic acid (2-hydroxy-1,1-dimethyl-ethyl)-amide] | 7.64
10 | COc1nn(-c2cnc3[nH]cc(C(=O)NC(C)(C)CO)c3n2)c2ccccc12 [Example I-344, 2-(3-Methoxy-indazol-1-yl)-5H-pyrrolo[2,3-b]pyrazine-7-carboxylic acid (2-hydroxy-1,1-dimethyl-ethyl)-amide] | 8.05
11 | Cn1nc(-c2cnc3[nH]cc(C(=O)NC(C)(C)CCCN)c3n2)c2ccc(F)cc21 [Example I-408, 2-(6-Fluoro-1-methyl-1H-indazol-3-yl)-5H-pyrrolo[2,3-b]pyrazine-7-carboxylic acid (4-amino-1,1-dimethyl-butyl)-amide] | 7.28
12 | Cn1nc(-c2cnc3[nH]cc(C(=O)NC(C)(CO)CO)c3n2)c2ccc(F)cc21 [Example I-383, 2-(6-Fluoro-1-methyl-1H-indazol-3-yl)-5H-pyrrolo[2,3-b]pyrazine-7-carboxylic acid (2-hydroxy-1-hydroxymethyl-1-methyl-ethyl)-amide] | 8.09
13 | Cc1ccc2c(-c3cnc4[nH]cc(C(=O)NC(C)(C)CO)c4n3)nn(C)c2c1 [Example I-368, 2-(1,6-Dimethyl-1H-indazol-3-yl)-5H-pyrrolo[2,3-b]pyrazine-7-carboxylic acid (2-hydroxy-1,1-dimethyl-ethyl)-amide] | 8.05
14 | Cc1ccc2c(-c3cnc4[nH]cc(C(=O)NC5(C#N)CC5)c4n3)n[nH]c2c1 [Example I-437, 2-(6-Methyl-1H-indazol-3-yl)-5H-pyrrolo[2,3-b]pyrazine-7-carboxylic acid (1-cyano-cyclopropyl)-amide] | 8.40
15 | CCn1nc(-c2cnc3[nH]cc(C(=O)NC(C)C)c3n2)c2ccc(Cl)cc21 [Example I-307, 2-(6-Chloro-1-ethyl-1H-indazol-3-yl)-5H-pyrrolo[2,3-b]pyrazine-7-carboxylic acid isopropylamide] | 7.49
16 | CC(O)CCn1nc(-c2cnc3[nH]cc(C(=O)NC(C)(C)CO)c3n2)c2ccc(F)cc21 (centres unmarked) [Example I-462, 2-(6-Fluoro-1-(3-hydroxybutyl)-1H-indazol-3-yl)-N-(1-hydroxy-2-methylpropan-2-yl)-5H-pyrrolo[3,2-b]pyrazine-7-carboxamide] | 7.75

Row | SMILES | pIC50
17 | CC(C)(C)NC(=O)c1c[nH]c2ncc(-c3nn(CCC4CNC4)c4cc(F)ccc34)nc12 [Example I-302, 2-[1-(2-Azetidin-3-yl-ethyl)-6-fluoro-1H-indazol-3-yl]-5H-pyrrolo[2,3-b]pyrazine-7-carboxylic acid tert-butylamide] | 8.07
18 | Cn1nc(-c2cnc3[nH]cc(C(=O)NC(C)(C)CO)c3n2)c2cc(C3CC3)ccc21 [Example I-196, 2-(5-Cyclopropyl-1-methyl-1H-indazol-3-yl)-5H-pyrrolo[2,3-b]pyrazine-7-carboxylic acid (2-hydroxy-1,1-dimethyl-ethyl)-amide] | 8.10
19 | CN(C)CCCn1nc(-c2cnc3[nH]cc(C(=O)NC4(C)CC4)c3n2)c2cc(OC(F)F)ccc21 [Example I-452, 2-(5-(Difluoromethoxy)-1-(3-(dimethylamino)propyl)-1H-indazol-3-yl)-N-(1-methylcyclopropyl)-5H-pyrrolo[3,2-b]pyrazine-7-carboxamide trifluoroacetate] | 7.86
20 | CC(C)(C)NC(=O)c1c[nH]c2ncc(-c3nn(CC4CN(Cc5ccccc5)CCO4)c4ccc(OC(F)F)cc34)nc12 (centres unmarked) [Example I-340, 2-[1-(4-Benzyl-morpholin-2-ylmethyl)-5-difluoromethoxy-1H-indazol-3-yl]-5H-pyrrolo[2,3-b]pyrazine-7-carboxylic acid tert-butylamide] | 6.53
21 | Cn1nc(-c2cnc3[nH]cc(C(=O)NC(C)(C)C(=O)OC(C)(C)C)c3n2)c2ccc(F)cc21 [Example I-381, 2-{[2-(6-Fluoro-1-methyl-1H-indazol-3-yl)-5H-pyrrolo[2,3-b]pyrazine-7-carbonyl]-amino}-2-methyl-propionic acid tert-butyl ester] | 6.15
22 | Cn1nc(-c2cnc3[nH]cc(C(=O)NC4CCCC(NC(=O)OC(C)(C)C)C4)c3n2)c2ccc(Cl)cc21 (centres unmarked) [Example I-442, (3-{[2-(6-Chloro-1-methyl-1H-indazol-3-yl)-5H-pyrrolo[2,3-b]pyrazine-7-carbonyl]-amino}-cyclohexyl)-carbamic acid tert-butyl ester] | 6.06
23 | Cn1nc(-c2cnc3[nH]cc(C(=O)NC(C)(C)C(=O)O)c3n2)c2ccc(F)cc21 [Example I-382, 2-{[2-(6-Fluoro-1-methyl-1H-indazol-3-yl)-5H-pyrrolo[2,3-b]pyrazine-7-carbonyl]-amino}-2-methyl-propionic acid] | 6.02
24 | Cn1nc(-c2cnc3[nH]cc(C(=O)NC(C)(C)c4ccccc4)c3n2)c2ccc(Cl)cc21 [Example I-388, 2-(6-Chloro-1-methyl-1H-indazol-3-yl)-5H-pyrrolo[2,3-b]pyrazine-7-carboxylic acid (1-methyl-1-phenyl-ethyl)-amide] | 7.20
25 | Cn1nc(-c2cnc3[nH]cc(C(=O)NC(C)(C)C)c3n2)c2cccnc21 [Example I-373, 2-(1-Methyl-1H-pyrazolo[3,4-b]pyridin-3-yl)-5H-pyrrolo[2,3-b]pyrazine-7-carboxylic acid tert-butylamide] | 7.72
26 | C[C@@H](NC(=O)c1c[nH]c2ncc(-c3nn(C)c4cc(C#N)ccc34)nc12)C(=O)N1CC(C#N)C1 [Example I-22, 2-(6-Cyano-1-methyl-1H-indazol-3-yl)-5H-pyrrolo[2,3-b]pyrazine-7-carboxylic acid [(R)-2-(3-cyano-azetidin-1-yl)-1-methyl-2-oxo-ethyl]-amide] | 7.34
27 | CC(C)(C)NC(=O)c1c[nH]c2ncc(-c3cccc4ccncc34)nc12 [Example I-444, 2-Isoquinolin-8-yl-5H-pyrrolo[2,3-b]pyrazine-7-carboxylic acid tert-butylamide] | 5.98
28 | C#CC(C)(C)NC(=O)c1c[nH]c2ncc(-c3nn(C)c4cc(F)ccc34)nc12 [Example I-380, 2-(6-Fluoro-1-methyl-1H-indazol-3-yl)-5H-pyrrolo[2,3-b]pyrazine-7-carboxylic acid (1,1-dimethyl-prop-2-ynyl)-amide] | 8.00
29 | CC(C)(C)NC(=O)c1c[nH]c2ncc(-c3nn(Cc4cccnc4)c4ccc(OC(F)F)cc34)nc12 [Example I-264, 2-(5-Difluoromethoxy-1-pyridin-3-ylmethyl-1H-indazol-3-yl)-5H-pyrrolo[2,3-b]pyrazine-7-carboxylic acid tert-butylamide] | 8.33
30 | Cc1ccc2c(-c3cnc4[nH]cc(C(=O)NC(C)(C)CN(C)C)c4n3)n[nH]c2c1 [Example I-436, 2-(6-Methyl-1H-indazol-3-yl)-5H-pyrrolo[2,3-b]pyrazine-7-carboxylic acid (2-dimethylamino-1,1-dimethyl-ethyl)-amide] | 7.32
31 | Cn1nc(-c2cnc3[nH]cc(C(=O)NCC4(O)CNC4)c3n2)c2ccc(F)cc21 [Example I-463, 2-(6-Fluoro-1-methyl-1H-indazol-3-yl)-N-((3-hydroxyazetidin-3-yl)methyl)-5H-pyrrolo[3,2-b]pyrazine-7-carboxamide trifluoroacetate] | 8.27
32 | Cn1nc(-c2cnc3[nH]cc(C(=O)NC4(C)CCCCC4)c3n2)c2ccc(F)cc21 [Example I-392, 2-(6-Fluoro-1-methyl-1H-indazol-3-yl)-5H-pyrrolo[2,3-b]pyrazine-7-carboxylic acid (1-methyl-cyclohexyl)-amide] | 7.99
